Test [1] concerns C. elegans dauer larvae. Nature of the test: Dispersal assay, C. elegans dauer. Type of test: in vivo. As to conditions: for dauer larvae that moved away from the release location, normalized to the percent of the positive control response: physiological concentration, with 0.25% E. coli (HB101), food only control approximately 35%; for substitution for ascr#2 in the C. elegans dispersal blend: in vivo. The method, then: C. elegans dauer juveniles were washed with MILLI-Q water 3 times, placed into 6 cm petri dishes with a small amount of water, and rested overnight. Approximately 200-300 nematodes in 10 μl of water were placed on an agar plate, to which 2 μl of treatment was added. The liquid culture that produced 60% dauer animals was centrifuged, filtered with a 0.45 μm filter, and used as a positive control for dispersal. Thereafter, media were lyophilized and resuspended in MILLI-Q water 5 times. 2 μl to 10 μl of nematode suspension was used for the assay. As a negative control, 0.5% E. coli (HB101) was prepared in S-complete, lyophilized, and adjusted to the final volume of 0.25% E. coli in the assay.
Nematodes were quantified using Image J software (Image Processing and Analysis in Java, National Institutes of Health). The number of nematodes visualized and counted using Image J is illustrated in FIG. 63B. Nematodes inside the circle were subtracted manually from the total number of worms counted because of the location of their placement. Each treatment was replicated 9-11 times. The graph was normalized to the positive control, the dauer conditioned medium.

Test [2] deals with C. elegans males. Nature of the test: Attraction assay (long-range, point source). Format: in vivo. The note with it: point source on 10 cm plate. As to the method:
10 cm standard chemotaxis plates were prepared (Bargmann et al., Cell 74:515-27 (1993), which is hereby incorporated by reference in its entirety) and stored at 4° C. until the day before use. Standard 1 cm-diameter copper pipes were sectioned into 1 cm-tall segments to use for the holding chambers. The females/hermaphrodites were isolated overnight, washed 3 times in M9 buffer, and then allowed to wander on a plate pre-conditioned with 50 uL of 1000× streptomycin for 2 hours to kill any bacteria that might produce a false positive attractant. The nematodes were then washed 3 times, and the supernatant from the last wash was placed in a copper chamber, as the control, 1 cm from the border of the 10 cm plate. The nematodes were suspended in M9 within the copper chamber, 1 cm from the border opposite the control chamber. After 6 hours, they were subsequently removed and replaced with 3 μL of 1M sodium azide. 100 C. elegans adult males were isolated overnight, washed several times in ddH2O, and placed at the center of the agar plate. After several hours, males paralyzed within 2 cm of each region were scored. The Chemotaxis Index (Bargmann et al., Cell 74:515-27 (1993), which is hereby incorporated by reference in its entirety) was then used to score male chemotaxis to either point source.

Test [3] relates to C. elegans hermaphrodites and males. The note with it: from 1 μM concentration; previous study (Srinivasan 2008); cited from earlier work.
Test [4] deals with C. elegans. As to conditions: shown previously; cited from earlier work.
Test [5] has as its system several of the tested nematode species. Nature of the test: Retention assay, several nematode species. Type of test: in vivo. As to conditions: 1 nM, 1 μM and 1 mM tested. As to the method:
OP50 E. coli was grown on a standard 5 cm agar plate (made with standard Nematode Growth Medium). The bacterial lawn was 16 mm in diameter and was grown overnight at 20° C. before being used in trials. Two 4 mm spots (0.6 μL) were placed on opposite sides of the bacterial lawn (using a transparent template to guide spot placement), and several minutes elapsed for the liquid to settle in before placing nematodes down on the assay. Recording began immediately upon worm placement. 0.6 μL of the control was placed on one side of the lawn, and 0.6 μL of the experimental cue was placed on the other side of the lawn, changing the location of the cue throughout trials between left/right and top/bottom to avoid bias.
Nematodes were isolated by gender at the L4 stage the day before being used in trials as developed adults. Worms were evenly divided and placed at two points equidistant from the foci of the scoring region. Trials were recorded for 20 minutes, and frames were collected for analysis at 1 frame per second. Results were averaged from at least three different trials. For every nematode species in this study, a different total number of worms (using water in both scoring regions) was tested to determine the minimum number of worms necessary for consistent unbiased results over a 20 minute trial. The total number of worms used in the multiple species assays depended on that species' optimal parameters. 10 worms were used for P. redivivus males and females, 20 worms were used for C. elegans males and O. dolichuridae males, and 14 worms were used for S. glaseri males. The Automated Software was used to compare worm occupancy in each scoring region over time, and the Chemotaxis Index (Bargmann et al., Cell 74:515-27 (1993), which is hereby incorporated by reference in its entirety) was adapted to score preference or avoidance to each ascaroside.
A video camera attached to the microscope produced a digital video stream, which was then analyzed. The ratio of the time the average worm spent in each region of interest was calculated for every trial. For ease of implementation, all worms in a single experiment were assumed to be roughly the same size. Thus worm pixels were counted instead of whole worms, allowing fractions of a worm in the region of interest to be taken into account. It also eliminated the need for a shape-based worm identification algorithm, and allowed each frame to be analyzed independently. A band-pass filter was applied to each frame to eliminate the effect of uneven lighting and also accentuate the worms against the background. The worm was then identified after thresholding the filtered image. Throughout each experiment, the locations and sizes of the regions of interest were known. Through the filtering described above, it is known which pixels are occupied by worms and which ones are not. Thus, the ratio of worm-pixels to all pixels inside the region of interest can be calculated to produce the worm-occupancy ratio. This calculation was done for every frame, giving a plot output of worm-occupancy ratio vs. time for each region.

The subject of test [6] is S. feltiae IJs. Nature of the test: Dispersal assay, S. feltiae infective juveniles. The note with it: for dispersal activity in combination with natural fractions B and C: ascr#9 40 pmol/μl, ascr#11 1.3 pmol/μl; for dispersal activity when tested alone: physiologically relevant concentrations. Type of test: in vivo. The method, then:
S. feltiae IJs were washed with MILLI-Q water three times and incubated in 6 cm petri dishes for […] with a small amount (4-5 ml) of MILLI-Q water. Nematodes were placed the following day on a 10.7 g/L agar with 1010 g/cm^2 gel strength (PhytoTechnology Lab. Shawnee Mission, Kans.). Nematode behavior was assayed on multiple plates with internal plate replicates to rule out the possibility that behavior was affected by plate composition. Approximately 300 IJs in 10 μl water were placed on an agar medium and the test compounds or extracts (1-2 μl) were placed into the nematode suspension. Upon absorption (˜15 minutes) of the liquid, the freely moving nematodes were video recorded for 5-10 minutes. Dispersal behavior is temperature and season dependent. During winter, the assay is effective at room temperature (22±1° C.). During summer, the assay requires a temperature controlled environment due to the effects on nematode behavior above 23° C.
Activity-guided fractionation was conducted as reported in Srinivasan et al., Nature 454:1115-18 (2008), which is hereby incorporated by reference in its entirety, with modifications. A total of 33 insect host cadavers (G. mellonella larvae) were placed into 70% EtOH and stored at −20° C. until extraction. The insect cadavers were homogenized using 1 g of ceramic zirconium beads (1.25 mm) (ZIRMIL) in 2 ml tubes for 37 seconds using a Precellys24 homogenizer. Samples were centrifuged for 15 minutes at 18400 relative centrifugal force (rcf), and the supernatant was lyophilized and resuspended in MILLI-Q water. The dispersal activity of nematodes was tested using the dispersal assay described in Example 60 and a physiologically relevant concentration of insect host cadaver extract or fractionated extract. To facilitate calculations for physiologically relevant concentration of the ascarosides, wax worm volume was estimated at ˜200 μl; the average weight of wax worms was 232+57 mg (n=19).
The first reverse-phase solid-phase extraction was performed using Sep-Pak Plus C18 cartridges (Waters corporation, Milford, Mass.). The initially collected flow through was termed Fraction A. Thereafter, the column was washed with water, collected, and saved. Subsequently, the column was eluted with 50% (Fraction B) and 90% (Fraction C) MeOH. The fractions were tested for dispersal activity both individually and in combination. Also, individual fractions were analyzed by LC-MS. Fraction A contained ascr#9, which was collected by LC-MS and tested for activity with Fraction B+C.

Test [7] relates to P. pacificus strain RSB020. Nature of the test: Mouth-form dimorphism assay. Type of test: in vivo, Pristionchus pacificus. As to the method:
Mouth-form dimorphism assays were performed using P. pacificus strain RSB020. The synthetic compounds dissolved in ethanol (0.5 mM) were diluted with water to make 100 μl solution and subsequently added to 3 mL NGM-agar (1 μM final concentration). The assay plates were seeded with 50 μl OP50 culture in LB medium and incubated overnight at 20° C. to allow bacterial growth. Each replicate included the progeny of two mothers, which were picked as adult hermaphrodites of a consistent age (carrying 4-6 eggs) and which were all from the same P. pacificus culture plate. Following the placement of mothers on assay plates, plates were kept at 20° C. for six days, such that the entire broods were adults at the time of screening. A random sample of 50 hermaphrodite progeny was screened per plate. All animals were screened by differential interference contrast (DIC) microscopy on a Zeiss Axiskop. The following discrete characters were used to discriminate eurystomatous from stenostomatous individuals, respectively: (1) claw-shaped vs. flint-shaped (i.e. dorsoventrally symmetrical) dorsal tooth; (2) presence vs. absence of a subventral tooth; (3) strongly vs. weakly sclerotized stomatal walls. No intermediate mouth-forms were observed. Experiments were conducted in triplicate for each treatment. In assays of responses to compounds of several concentrations (1, 0.3, 0.1, 0.03, 0.01 μM final concentrations), experiments were performed as described above, with the following modifications. To allow greater resolution of responses to lower concentrations, 60 randomly screened individuals in each of five replicates per concentration per compound were assayed. All concentration-curve experiments were performed in parallel using mothers picked randomly from the same two source populations. To prepare large numbers of individual mothers for these experiments, source populations were established from virgin hermaphrodites to constrain the presence of males and were conditioned to well-fed and ambient conditions for at least one generation before mothers were picked for the assays.

The test system of test [8] is P. pacificus. Kind of test: Dauer formation assay. Type of test: in vivo, Pristionchus pacificus. As to conditions: synthetic samples; first assayed at 1 μM. The method, then: Dauer formation assays were performed as described in Ogawa et al., Curr. Biol. 19:67-71 (2009), which is hereby incorporated by reference in its entirety, using heat- or kanamycin-killed E. coli OP50. Synthetic compounds were dissolved in ethanol (0.5 mM, stock solution) and combined with water to make a […] and subsequently added to 3 mL NGM-agar without peptone ([…], 0.3, 0.1 μM final concentrations).

The mark [9] stands for this setting: synthetic samples, first assayed at 1 μM.

Entries after “also recorded” stand apart in the source; their conditions may differ.

The text below walks through data of US9445596B2, “Small molecule compounds for the control of nematodes” (California Institute of Technology, priority 2011, dated 2016).

For `CC(=O)CCC[C@@H](C)O[C@@H]1O[C@@H](C)[C@H](O)C[C@H]1O` [ascr#2], in test [1], the “dauer larvae that moved away from the release location, normalized to the percent of the positive control response” value is given as 40%. Besides, in test [2], the “lowest amount eliciting male attraction (as low as)” value is 500 attomol and the “male attraction from a distance / chemotaxis towards a point source” value is “chemotax towards”. Also, in test [3], the “most active amount for attraction in C. elegans” value is given as roughly 1 pmol. Besides, the “promotion of dauer entry” value in test [4] is reported as “individually promote dauer entry”.

As to `C[C@H](CC/C=C/C(=O)Nc1ccc(C(=O)O)cc1)O[C@@H]1O[C@@H](C)[C@H](O)C[C@H]1O` [ascr#8], the “dauer larvae that moved away from the release location, normalized to the percent of the positive control response” value in test [1] was 50%. Besides, the “preference for areas conditioned by the ascaroside” value in test [5] is listed as “preferred”. In addition, the “male attraction from a distance / chemotaxis towards a point source” value in test [2] was “not active”. Moreover, the “promotion of dauer entry” value in test [4] is given as “individually promote dauer entry”.

As to `C[C@H](CCC(=O)O)O[C@@H]1O[C@@H](C)[C@H](O)C[C@H]1O` [ascr#9], the “substitution for ascr#2 in the C. elegans dispersal blend” value in test [1] is given as “can replace the function of ascr#2”. Also, the “substitution for ascr#2 in the C. elegans dispersal blend” value in test [1] (listed as Ascr#9) is recorded as “able to substitute for its structural analog ascr#2”. For the same compound, in test [6], the “dispersal activity in combination with natural fractions B and C” value is given as “restored the original dispersal activity”; the “dispersal activity when tested alone” value is recorded as “did not have activity by themselves”. In addition, the “preference for areas conditioned by the ascaroside” value in test [5] is on record as “preferred”. In test [7] (setting [9]), the “induction of the eurystomatous mouth form” value was “inactive”.

For the compound `C[C@H](CC(=O)O)O[C@@H]1O[C@@H](C)[C@H](O)C[C@H]1O` [ascr#11], in test [6], the “dispersal activity in combination with natural fractions B and C” value is “restored the full activity; also recorded: sufficient to cause dispersal”; the “dispersal activity when tested alone” value was “did not have activity by themselves”.

As for `C[C@H](CCC(=O)O[C@H](C)[C@H](NC(=O)Nc1ncnc2c1ncn2[C@@H]1OC[C@@H](O)[C@H](O)[C@H]1O)C(=O)O)O[C@@H]1O[C@@H](C)[C@H](O)C[C@@H]1O` [npar#1, (2S,3R)-3-(((R)-4-(((2R,3S,5R,6S)-3,5-dihydroxy-6-methyltetrahydro-2H-pyran-2-yl)oxy)pentanoyl)oxy)-2-(3-(9-((2R,3R,4S,5R)-3,4,5-trihydroxytetrahydro-2H-pyran-2-yl)-9H-purin-6-yl)ureido)butanoic acid], in test [8], the dauer induction entry is recorded as “induces dauer arrest; also recorded: strongly induced dauer formation”. In addition, the “induction of the eurystomatous mouth form” value in test [7] (high concentrations) is “weaker induction of the eurystomatous mouth form”.

With `C[C@H](CCC(=O)O)O[C@@H]1O[C@@H](C)[C@H](O)C[C@@H]1O` [part#9, (R)-4-(((2R,3S,5R,6S)-3,5-dihydroxy-6-methyltetrahydro-2H-pyran-2-yl)oxy)pentanoic acid], in test [8], the dauer induction entry is recorded as “weaker dauer inducation”. Moreover, the “induction of the eurystomatous mouth form” value in test [7] (setting [9]) was “inactive”.
